Common to all, as to format: biochemical
For one test, the target named is T1, PI3Kβ (Homo sapiens, UniProt P42338).
T1 construct: p110β(2-1070)-His; made in house; host or cells: baculovirus, Tn5 insect cells
Nature of the test: PI3K KinaseGlo assay, PI3Kβ. The protocol: PI3K KinaseGlo assay: […] of compound dilutions were dispensed onto black 384-well low volume Non Binding Styrene (NBS) plates (Costar Cat. No. NBS#3676). L-a-phosphatidylinositol (PI), provided as 10 mg/ml solution in methanol, was transferred into a glass tube and dried under nitrogen beam. It was then resuspended in 3% OctylGlucoside (OG) by vortexing and stored at 4° C. The KinaseGlo Luminescent Kinase Assay (Promega, Madison/WI, USA) is a homogeneous HTS method of measuring kinase activity by quantifying the amount of ATP remaining in solution following a kinase reaction.
5 μL of a mix of PI/OG with the PI3K subtype were added (Table 1). Kinase reactions were started by addition of 5 μl of ATP-mix containing in a final volume 10 μL 10 mM TRIS-HCl pH 7.5, 3 mM MgCl2, 50 mM NaCl, 0.05% CHAPS, 1 mM DTT and 1 μM ATP, and occurred at room temperature. […] The standard was used as a reference compound and included in all assay plates in the form of 16 dilution points in duplicate.
The PI3Kα, PI3Kβ and PI3Kδ constructs are fusion of p85α iSH2 domain and the respective p110 isoforms. The p85α fragment and p110 isoform genes were generated by PCR from first strand cDNA generated by RT-PCR from commercial RNA from placenta, testis and brain as described below. The PI3Kγ construct was obtained from Roger Williams lab, MRC Laboratory of Molecular Biology, Cambridge, UK (November, 2003) and is described (Pacold, Michael E.; Suire, Sabine; Perisic, Olga; Lara-Gonzalez, Samuel; Davis, Colin T.; Walker, Edward H.; Hawkins, Phillip T.; Stephens, Len; Eccleston, John F.; Williams, Roger L. Crystal structure and functional analysis of Ras binding to its effector phosphoinositide 3-kinase gamma. Cell (2000), 103(6), 931-943).
BV949: PCR products for the inter SH2 domain (iSH2) of the p85 PI3Kα, PI13Kβ and PI3Kδ subunit and for the full-length p110β subunit were generated and fused by overlapping PCR. […] The p11013 fragment was obtained by PCR using as template a p110β clone (from unknown source that was sequence verified) using primers gwG130-p04 (5′-[…]-[…]-3′) (SEQ ID NO: 9) which contains linker sequences and the 5′ end of p110β and gwG130-p06 (5′-[…]-[…]-3′) (SEQ ID NO: 10) which contains sequences of the 3′ end of p110-β fused to a Histidine tag. […] This final product was recombined in a Gateway (Invitrogen) […] into the donor vector pDONR201 (Invitrogen) to generate the ORF253 entry clone. This clone was verified by sequencing and used in a Gateway LR reaction (Invitrogen) to transfer the insert into the Gateway adapted pBlueBac4.5 (Invitrogen) vector for generation of the baculovirus expression vector LR280.
(§1) PI3Kα, PI3Kβ and PI3Kγ were purified in two chromatographic steps: immobilized metal affinity chromatography (IMAC) on a Ni sepharose resin (GE Healthcare) and gel filtration utilizing a Superdex 200 26/60 column (GE Healthcare). All buffers were chilled to 4° C. and lysis was performed chilled on ice. Column fractionation was performed at room temperature. All buffers used to purify PI3Kβ contained 0.05% Triton X100 in addition to what is described below.
The lysate was centrifuged at 45,000 g for 30 minutes, and the supernatant was loaded onto a pre-equilibrated IMAC column (3 mL resin/100 mL lysate). […] Protein was eluted with 20 mM Tris-Cl, pH 7.5, 0.5 M NaCl, 5% glycerol, 250 mM imidazole, 1 mM NaF, 0.1 μg/mL OAA, 5 mM BME, 1× Complete protease inhibitor cocktail—EDTA-free. Pertinent fractions were analyzed by SDS-PAGE and pooled accordingly. The protein was further purified by gel filtration on a Superdex 200 26/60 column equilibrated in 20 mM Tris-Cl, pH 7.5, 0.5 M NaCl, 5% glycerol, 1 mM NaF, 5 mM DTT, 1× Complete protease inhibitor cocktail—EDTA-free. Pertinent fractions were analyzed by SDS-PAGE and pooled accordingly.
On the technique in general: Kinase-Glo reads ATP consumption through a luciferase reaction.

The next test concerns the target T2, PI3Kδ (Homo sapiens, UniProt O00329).
T2 construct: p85iSH2(461-568)-GGGGGG-p110δ(2-1044)-His; made in house; host or cells: baculovirus, Tn5 insect cells
Nature of the test: PI3K KinaseGlo assay, PI3Kδ. The conditions noted are these: 10 nM enzyme, 1 μM ATP, 30 mins, room temperature, read-out: PI3Kd/IC50.

Another test deals with T3, PI3Kγ (Homo sapiens, UniProt P48736, Q459R).
T3 construct: p110γ(Δ143-[Met144-1102])-His; made in house; host or cells: Tn5 insect cells; construct from Roger Williams lab, MRC LMB
Nature of the test: PI3K KinaseGlo assay, PI3Kγ. The conditions noted are these: 150 nM enzyme, 1 μM ATP, 90 mins, room temperature, read-out: PI3Kg/IC50. As to the method:
L-a-phosphatidylinositol (PI), provided as 10 mg/ml solution in methanol, was transferred into a glass tube and dried under nitrogen beam. It was then resuspended in 3% OctylGlucoside (OG) by vortexing and stored at 4° C. The KinaseGlo Luminescent Kinase Assay (Promega, Madison/WI, USA) is a homogeneous HTS method of measuring kinase activity by quantifying the amount of ATP remaining in solution following a kinase reaction.
5 μL of a mix of PI/OG with the PI3K subtype were added (Table 1). Kinase reactions were started by addition of 5 μl of ATP-mix containing in a final volume 10 μL 10 mM TRIS-HCl pH 7.5, 3 mM MgCl2, 50 mM NaCl, 0.05% CHAPS, 1 mM DTT and 1 μM ATP, and occurred at room temperature. […] The standard was used as a reference compound and included in all assay plates in the form of 16 dilution points in duplicate. […]
as §1
The lysate was centrifuged at 45,000 g for 30 minutes, and the supernatant was loaded onto a pre-equilibrated IMAC column (3 mL resin/100 mL lysate). […] Protein was eluted with 20 mM Tris-Cl, pH 7.5, 0.5 M NaCl, 5% glycerol, 250 mM imidazole, 1 mM NaF, 0.1 μg/mL OAA, 5 mM BME, 1× Complete protease inhibitor cocktail—EDTA-free. Pertinent fractions were analyzed by SDS-PAGE and pooled accordingly. The protein was further purified by gel filtration on a Superdex 200 26/60 column equilibrated in 20 mM Tris-Cl, pH 7.5, 0.5 M NaCl, 5% glycerol, 1 mM NaF, 5 mM DTT, 1× Complete protease inhibitor cocktail—EDTA-free. Pertinent fractions were analyzed by SDS-PAGE and pooled accordingly. An equal volume of Dialysis Buffer (20 mM Tris-Cl, pH 7.5, 500 mM NaCl, 50% glycerol, 5 mM NaF, 5 mM DTT) was added to the pool and than dialyzed against Dialysis Buffer two changes (one change overnight). Protein was stored at −20° C.

In the next test the target is T4, PI3Kα (Homo sapiens, UniProt P42336).
T4 construct: p110α(21-1068)-His; made in house; host or cells: baculovirus, Tn5 insect cells
Nature of the test: PI3K KinaseGlo assay, PI3Kα.

Where [1] appears, read: KinaseGlo, 25 nM enzyme, 1 μM ATP, 30 mins, room temperature, read-out: PI3Kb/IC50.
The mark [2] stands for this setting: KinaseGlo, 10 nM enzyme, 1 μM ATP, 30 mins, room temperature, read-out: PI3Ka/IC50.
The mark [3] stands for this setting: KinaseGlo, 10 nM enzyme, 1 μM ATP, 30 mins, room temperature.

Like-named read-outs stand apart in the source and are kept apart here.

T3 sequence (P48736 with tags, fused parts or gaps Q459R): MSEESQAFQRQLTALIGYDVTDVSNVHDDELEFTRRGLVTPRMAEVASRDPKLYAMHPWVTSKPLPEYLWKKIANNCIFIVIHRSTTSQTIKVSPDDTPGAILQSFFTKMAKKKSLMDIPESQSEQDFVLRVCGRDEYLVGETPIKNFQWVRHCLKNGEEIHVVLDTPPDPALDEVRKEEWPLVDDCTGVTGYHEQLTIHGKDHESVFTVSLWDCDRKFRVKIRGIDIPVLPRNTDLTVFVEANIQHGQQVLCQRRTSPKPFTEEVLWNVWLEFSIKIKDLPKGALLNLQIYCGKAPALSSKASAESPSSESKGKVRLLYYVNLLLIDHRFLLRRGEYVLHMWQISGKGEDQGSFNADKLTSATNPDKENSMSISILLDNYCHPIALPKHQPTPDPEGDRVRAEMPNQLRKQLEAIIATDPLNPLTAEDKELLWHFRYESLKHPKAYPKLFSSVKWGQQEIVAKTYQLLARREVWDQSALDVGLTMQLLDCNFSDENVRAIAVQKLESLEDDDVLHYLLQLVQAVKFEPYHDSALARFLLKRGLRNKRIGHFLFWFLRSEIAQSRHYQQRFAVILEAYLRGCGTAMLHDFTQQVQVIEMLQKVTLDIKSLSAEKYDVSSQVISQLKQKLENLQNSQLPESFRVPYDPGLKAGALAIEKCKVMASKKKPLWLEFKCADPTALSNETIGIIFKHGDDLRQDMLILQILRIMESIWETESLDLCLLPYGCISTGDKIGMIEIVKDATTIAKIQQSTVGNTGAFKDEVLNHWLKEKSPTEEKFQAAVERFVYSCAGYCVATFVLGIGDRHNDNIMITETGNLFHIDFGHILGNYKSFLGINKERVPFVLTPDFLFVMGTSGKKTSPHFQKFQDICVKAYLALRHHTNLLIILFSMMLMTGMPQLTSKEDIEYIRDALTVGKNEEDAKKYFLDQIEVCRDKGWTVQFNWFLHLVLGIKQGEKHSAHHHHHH
T4 sequence (P42336 with tags, fused parts or gaps): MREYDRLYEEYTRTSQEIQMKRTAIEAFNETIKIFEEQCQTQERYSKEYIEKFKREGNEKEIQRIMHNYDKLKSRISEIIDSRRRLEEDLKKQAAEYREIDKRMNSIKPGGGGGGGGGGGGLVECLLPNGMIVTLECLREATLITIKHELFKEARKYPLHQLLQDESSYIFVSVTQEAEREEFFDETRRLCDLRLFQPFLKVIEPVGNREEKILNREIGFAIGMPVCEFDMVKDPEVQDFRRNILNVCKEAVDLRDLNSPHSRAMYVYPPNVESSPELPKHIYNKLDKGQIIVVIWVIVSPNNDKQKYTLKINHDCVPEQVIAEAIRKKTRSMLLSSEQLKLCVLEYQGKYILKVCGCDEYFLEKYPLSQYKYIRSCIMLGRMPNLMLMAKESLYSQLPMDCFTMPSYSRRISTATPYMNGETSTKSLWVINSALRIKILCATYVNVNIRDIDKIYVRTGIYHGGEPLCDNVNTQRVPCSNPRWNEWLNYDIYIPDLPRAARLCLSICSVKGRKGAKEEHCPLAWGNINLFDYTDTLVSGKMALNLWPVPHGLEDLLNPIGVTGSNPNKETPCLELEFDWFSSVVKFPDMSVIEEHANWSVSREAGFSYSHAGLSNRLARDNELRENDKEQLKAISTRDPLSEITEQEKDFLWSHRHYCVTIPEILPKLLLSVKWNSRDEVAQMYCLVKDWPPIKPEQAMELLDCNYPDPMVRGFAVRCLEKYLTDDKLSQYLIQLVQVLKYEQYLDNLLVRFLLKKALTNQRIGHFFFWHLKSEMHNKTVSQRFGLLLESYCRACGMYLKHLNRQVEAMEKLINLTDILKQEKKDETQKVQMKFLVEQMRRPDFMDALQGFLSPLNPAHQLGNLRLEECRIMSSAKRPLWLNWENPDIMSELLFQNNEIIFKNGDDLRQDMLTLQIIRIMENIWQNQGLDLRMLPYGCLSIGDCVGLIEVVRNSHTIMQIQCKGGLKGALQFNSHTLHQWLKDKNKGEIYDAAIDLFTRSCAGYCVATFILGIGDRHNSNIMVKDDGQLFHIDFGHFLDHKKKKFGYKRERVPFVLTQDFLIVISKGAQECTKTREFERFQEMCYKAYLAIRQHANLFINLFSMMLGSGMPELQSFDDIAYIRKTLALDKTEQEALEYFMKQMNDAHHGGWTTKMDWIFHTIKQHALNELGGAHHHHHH
T1 sequence (P42338 with tags, fused parts or gaps): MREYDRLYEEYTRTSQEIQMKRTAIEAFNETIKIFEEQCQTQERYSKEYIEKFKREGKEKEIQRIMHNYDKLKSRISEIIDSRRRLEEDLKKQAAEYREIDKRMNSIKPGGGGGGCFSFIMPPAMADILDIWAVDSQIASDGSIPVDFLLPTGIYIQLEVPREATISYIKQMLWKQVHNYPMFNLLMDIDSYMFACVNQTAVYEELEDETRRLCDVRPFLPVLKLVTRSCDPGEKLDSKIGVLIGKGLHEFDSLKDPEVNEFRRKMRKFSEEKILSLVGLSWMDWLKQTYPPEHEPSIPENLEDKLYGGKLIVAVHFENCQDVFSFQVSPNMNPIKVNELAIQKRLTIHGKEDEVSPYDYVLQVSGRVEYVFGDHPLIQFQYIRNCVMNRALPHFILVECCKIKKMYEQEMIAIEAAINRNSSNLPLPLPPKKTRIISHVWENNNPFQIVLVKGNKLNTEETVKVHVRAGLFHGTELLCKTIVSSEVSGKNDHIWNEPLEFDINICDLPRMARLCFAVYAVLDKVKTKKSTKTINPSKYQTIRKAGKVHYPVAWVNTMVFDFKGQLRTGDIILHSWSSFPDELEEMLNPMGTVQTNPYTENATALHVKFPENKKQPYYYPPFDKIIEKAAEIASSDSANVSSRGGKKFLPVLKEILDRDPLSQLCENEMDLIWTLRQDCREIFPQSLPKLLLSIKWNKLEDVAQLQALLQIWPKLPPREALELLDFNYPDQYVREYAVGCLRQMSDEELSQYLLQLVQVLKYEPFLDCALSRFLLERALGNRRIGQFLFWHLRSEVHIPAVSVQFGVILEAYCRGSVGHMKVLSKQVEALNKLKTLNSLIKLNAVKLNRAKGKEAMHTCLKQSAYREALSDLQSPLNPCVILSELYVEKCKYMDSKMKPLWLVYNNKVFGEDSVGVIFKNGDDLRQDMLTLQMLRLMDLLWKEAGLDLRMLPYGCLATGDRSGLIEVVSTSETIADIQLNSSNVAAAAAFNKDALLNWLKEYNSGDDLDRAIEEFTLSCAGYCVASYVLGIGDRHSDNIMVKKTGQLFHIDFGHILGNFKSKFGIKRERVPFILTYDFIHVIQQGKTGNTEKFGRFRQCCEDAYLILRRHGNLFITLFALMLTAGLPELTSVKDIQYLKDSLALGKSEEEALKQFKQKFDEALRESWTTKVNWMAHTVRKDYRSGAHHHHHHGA
T2 sequence (O00329 with tags, fused parts or gaps): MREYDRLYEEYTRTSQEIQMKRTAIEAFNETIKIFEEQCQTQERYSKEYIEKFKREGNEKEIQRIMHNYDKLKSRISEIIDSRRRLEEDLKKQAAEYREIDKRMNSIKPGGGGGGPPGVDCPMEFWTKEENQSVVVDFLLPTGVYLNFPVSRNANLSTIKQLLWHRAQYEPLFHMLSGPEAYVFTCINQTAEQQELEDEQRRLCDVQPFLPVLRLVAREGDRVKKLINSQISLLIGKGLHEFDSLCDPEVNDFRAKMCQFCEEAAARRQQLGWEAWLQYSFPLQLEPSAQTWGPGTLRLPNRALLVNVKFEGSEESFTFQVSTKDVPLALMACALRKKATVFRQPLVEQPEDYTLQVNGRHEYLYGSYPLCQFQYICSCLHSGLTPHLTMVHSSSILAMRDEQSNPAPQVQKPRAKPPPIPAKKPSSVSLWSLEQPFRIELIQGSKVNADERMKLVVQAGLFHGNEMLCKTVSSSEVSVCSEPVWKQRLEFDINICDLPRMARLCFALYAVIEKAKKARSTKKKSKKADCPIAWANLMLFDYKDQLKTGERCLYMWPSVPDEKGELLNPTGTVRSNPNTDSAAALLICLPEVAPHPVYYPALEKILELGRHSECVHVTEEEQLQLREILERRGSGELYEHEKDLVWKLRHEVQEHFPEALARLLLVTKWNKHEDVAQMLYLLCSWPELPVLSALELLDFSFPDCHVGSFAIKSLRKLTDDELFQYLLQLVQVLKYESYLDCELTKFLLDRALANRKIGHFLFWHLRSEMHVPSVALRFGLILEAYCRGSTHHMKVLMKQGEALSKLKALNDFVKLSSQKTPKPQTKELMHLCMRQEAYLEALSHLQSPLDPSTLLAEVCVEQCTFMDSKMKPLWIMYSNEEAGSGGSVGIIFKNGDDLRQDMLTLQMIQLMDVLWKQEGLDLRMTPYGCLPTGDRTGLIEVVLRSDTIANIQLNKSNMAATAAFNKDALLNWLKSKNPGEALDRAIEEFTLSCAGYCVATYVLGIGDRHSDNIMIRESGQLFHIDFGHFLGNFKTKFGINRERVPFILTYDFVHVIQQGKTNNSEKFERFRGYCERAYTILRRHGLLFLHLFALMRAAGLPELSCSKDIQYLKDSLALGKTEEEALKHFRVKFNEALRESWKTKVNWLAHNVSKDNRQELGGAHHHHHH

Regarding `Cc1nc(NC(=O)N2CCC[C@H]2C(N)=O)sc1-c1ccnc(C(C)(C)C)c1` [Example 1, (S)-Pyrrolidine-1,2-dicarboxylic acid 2-amide 1-{[5-(2-tert-butyl-pyridin-4-yl)-4-methyl-thiazol-2-yl]-amide}], the results for the IC50 on PI3Kβ (setting [1]), at PI3Kδ and on PI3Kγ were 4430 nM, 971 nM and 680 nM, respectively.
For `Cc1nc(NC(=O)N2CCC[C@H]2C(N)=O)sc1-c1ccnc(-c2ccccc2F)c1` [Example 3, (S)-Pyrrolidine-1,2-dicarboxylic acid 2-amide 1-({5-[2-(2-fluoro-phenyl)-pyridin-4-yl]-4-methyl-thiazol-2-yl}-amide)], the IC50 came out at 67 nM on PI3Kα (setting [2]), 2300 nM at PI3Kβ (setting [1]), 432 nM at PI3Kδ and 362 nM at PI3Kγ.
As for `CC(C)(c1cc(-c2cnc(NC(=O)N3CCC[C@H]3C(N)=O)s2)ccn1)C(F)(F)F` [Example 12, (S)-Pyrrolidine-1,2-dicarboxylic acid 2-amide 1-({5-[2-(2,2,2-trifluoro-1,1-dimethyl-ethyl)-pyridin-4-yl]-thiazol-2-yl}-amide)], the IC50 on PI3Kα turned out to be 10 nM; at PI3Kβ (setting [1]), 3870 nM; at PI3Kδ, 197 nM; on PI3Kγ, 352 nM.
As for `NC(=O)[C@@H]1CCCN1C(=O)Nc1ncc(-c2ccnc(C3(C(F)(F)F)CCC3)c2)s1` [Example 13, (S)-Pyrrolidine-1,2-dicarboxylic acid 2-amide 1-({5-[2-(1-trifluoromethyl-cyclobutyl)-pyridin-4-yl]-thiazol-2-yl}-amide)], the IC50 on PI3Kβ (setting [1]) is 4490 nM; on PI3Kδ, 161 nM; on PI3Kγ it was 183 nM.
For `Cc1nc(NC(=O)N2CCC[C@H]2C(N)=O)sc1-c1ccnc(C2(C#N)CC2)c1` [Example 18, (S)-Pyrrolidine-1,2-dicarboxylic acid 2-amide 1-({5-[2-(1-cyano-cyclopropyl)pyridin-4-yl]-4-methyl-thiazol-2-yl}-amide)], the PI3Ka/IC50 on PI3Kα (setting [3]) is listed as 0.019 umol I-1. Moreover, the IC50 on PI3Kβ (setting [1]) is 4140 nM; on PI3Kδ, 538 nM; on PI3Kγ it was 612 nM.
Regarding `COc1ccc(C(C)(C)c2cc(-c3sc(NC(=O)N4CCC[C@H]4C(N)=O)nc3C)ccn2)cc1` [Example 27, (S)-Pyrrolidine-1,2-dicarboxylic acid 2-amide 1-[(5-{2-[1-(4-methoxy-phenyl)-1-methyl-ethyl]-pyridin-4-yl}-4-methyl-thiazol-2-yl)-amide]], the IC50 at PI3Kα (setting [2]) stood at 81 nM; at PI3Kβ (setting [1]), 5200 nM; on PI3Kδ, 271 nM; at PI3Kγ it was 1560 nM.
For `COc1ccc(C2(c3cc(-c4sc(NC(=O)N5CCC[C@H]5C(N)=O)nc4C)ccn3)CC2)cc1` [Example 29, (S)-Pyrrolidine-1,2-dicarboxylic acid 2-amide 1-[(5-{2-[1-(4-methoxy-phenyl)-cyclopropyl]-pyridin-4-yl}-4-methyl-thiazol-2-yl)-amide]], in that order: 56 nM, 6170 nM, 804 nM and 684 nM.
On to `CC(C)(c1cc(-c2sc(NC(=O)N3CCC[C@H]3C(N)=O)nc2Cl)ccn1)C(F)(F)F` [Example 37, (S)-Pyrrolidine-1,2-dicarboxylic acid 2-amide 1-({4-chloro-5-[2-(2,2,2-trifluoro-1,1-dimethyl-ethyl)-pyridin-4-yl]-thiazol-2-yl}-amide)], for which the PI3Ka/IC50 at PI3Kα (setting [3]) was 0.039 umol I-1. Also, the IC50 at PI3Kβ (setting [1]) was 5520 nM; on PI3Kδ, 386 nM; at PI3Kγ, 4450 nM.
As for `Cc1nc(NC(=O)N2CCC[C@H]2C(N)=O)sc1-c1ccnc(C2(C)CC2)n1` [Example 42, (S)-Pyrrolidine-1,2-dicarboxylic acid 2-amide 1-({4-methyl-5-[2-(1-methylcyclopropyl)-pyrimidin-4-yl]-thiazol-2-yl}-amide)], the figures for the IC50 against PI3Kβ, at PI3Kδ and on PI3Kγ were 3170 nM, 289 nM and 858 nM, respectively.
Regarding `Cc1nc(NC(=O)N2CCC[C@H]2C(N)=O)sc1-c1ccnc(Cc2c(Cl)cccc2Cl)n1` [Example 47, (S)-Pyrrolidine-1,2-dicarboxylic acid 2-amide 1-({5-[2-(2,6-dichloro-benzyl)pyrimidin-4-yl]-4-methyl-thiazol-2-yl}-amide)], the IC50 at PI3Kα (setting [2]) was 94 nM; at PI3Kβ (setting [1]) it was 2900 nM; on PI3Kδ it was 156 nM; at PI3Kγ, 1870 nM.
As for `Cc1nc(NC(=O)N2CCC[C@H]2C(N)=O)sc1-c1ccnc(-c2ccccc2F)n1` [Example 51, (S)-Pyrrolidine-1,2-dicarboxylic acid 2-amide 1-({5-[2-(2-fluoro-phenyl)pyrimidin-4-yl]-4-methyl-thiazol-2-yl}-amide)], the IC50 came out at 113 nM on PI3Kα (setting [2]), 8840 nM on PI3Kβ (setting [1]), 690 nM at PI3Kδ and 3480 nM at PI3Kγ.

The values are drawn from patent US8710085B2, “Pyrrolidine-1,2-dicarboxamide derivatives” (Novartis AG, priority 2008, dated 2014).
